Test results as given in ChEMBL document CHEMBL1201862, “PubChem BioAssay data set” (2004).
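Exposure lasted 48 hours, with cells grown in 96-well plates and compounds tested at five concentrations. GI50 marks 50% less growth.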 Activity calls are given as the source filed them. No stated cut-off is given here; in the data, active = GI50 up to about 1.1 µM and inactive = higher.

Assays:
Experiment in all cases: DTP human tumour cell line panel, 48 h
A498 = system: A498
CCRF-CEM = system: CCRF-CEM
HCC 2998 = system: HCC 2998
HCT-116 = system: HCT-116
HCT-15 = system: HCT-15
HT-29 = system: HT-29
KM12 = system: KM12
MOLT-4 = system: MOLT-4
NCI-H23 = system: NCI-H23
SF-295 = system: SF-295
SN12C = system: SN12C
SR = system: SR
TK-10 = system: TK-10
U-251 = system: U-251
SK-MEL-5 = system: SK-MEL-5
UACC-257 = system: UACC-257

Compound	GI50 (A498)	GI50 (CCRF-CEM)	GI50 (HCC 2998)	GI50 (HCT-116)	GI50 (HCT-15) [µM]	GI50 (HT-29)	GI50 (KM12)	GI50 (MOLT-4)	GI50 (NCI-H23)	GI50 (SF-295)	GI50 (SN12C)	GI50 (SR)	GI50 (TK-10)	GI50 (U-251)	GI50 (SK-MEL-5)	GI50 (UACC-257)
CCCn1c(SCC)c2ccccc2c1-c1nc(F)nc(F)n1	> 100 µM (inactive)	> 100 µM (inactive)	> 100 µM (inactive)	> 100 µM (inactive)	> 100	> 100 µM (inactive)	> 100 µM (inactive)	> 100 µM (inactive)	> 100 µM (inactive)	> 100 µM (inactive)	> 100 µM (inactive)	> 100 µM (inactive)	> 100 µM (inactive)	> 100 µM (inactive)		
N#CCc1c(-c2ccccc2)n(S(=O)(=O)c2ccccc2)c2ccccc12		> 100 µM (inactive)	> 100 µM (inactive)	37.1 µM (inactive)	82.8	> 100 µM (inactive)	> 100 µM (inactive)	41.3 µM (inactive)	33.7 µM (inactive)	25.1 µM (inactive)		12.2 µM (inactive)	> 100 µM (inactive)	> 100 µM (inactive)	> 100 µM (inactive)	> 100 µM (inactive)
Cc1cc2c(cc1C)[n+]([O-])c(C(=O)C/C(=N/OCCCc1ccccc1)C(=O)Nc1cc(Cl)ccc1Cl)c(C)[n+]2[O-]	> 100 µM (inactive)	33.3 µM (inactive)	> 100 µM (inactive)	> 100 µM (inactive)	> 100	> 100 µM (inactive)	> 100 µM (inactive)	22.9 µM (inactive)	> 100 µM (inactive)	> 100 µM (inactive)	> 100 µM (inactive)		> 100 µM (inactive)	> 100 µM (inactive)	> 100 µM (inactive)	> 100 µM (inactive)
NNC(=S)N/N=C/C(Cl)=C(\Cl)C(=O)O	> 100 µM (inactive)	> 100 µM (inactive)	> 100 µM (inactive)	> 100 µM (inactive)	> 100	> 100 µM (inactive)		> 100 µM (inactive)	> 100 µM (inactive)	> 100 µM (inactive)	> 100 µM (inactive)	> 100 µM (inactive)	> 100 µM (inactive)	> 100 µM (inactive)	> 100 µM (inactive)	> 100 µM (inactive)
C/C(CC(=O)Nc1ccc(C)cc1)=N\NC(N)=S	> 100 µM (inactive)	> 100 µM (inactive)	> 100 µM (inactive)	> 100 µM (inactive)		> 100 µM (inactive)	77.4 µM (inactive)	> 100 µM (inactive)	> 100 µM (inactive)	> 100 µM (inactive)			> 100 µM (inactive)	> 100 µM (inactive)	> 100 µM (inactive)	> 100 µM (inactive)
[N-]=[N+]=NC1(Cc2ccccc2)C(=O)c2cccc3c2N(CCC3)C1=O (stereo unspecified)		> 100 µM (inactive)		> 100 µM (inactive)	> 100	> 100 µM (inactive)	> 100 µM (inactive)	> 100 µM (inactive)	> 100 µM (inactive)	> 100 µM (inactive)	> 100 µM (inactive)	> 100 µM (inactive)	> 100 µM (inactive)	> 100 µM (inactive)	> 100 µM (inactive)	> 100 µM (inactive)
COC1OC(CBr)C(OC(=O)c2ccccc2)C(OS(=O)(=O)c2ccc(C)cc2)C1Br (stereo unspecified)	> 100 µM (inactive)	> 100 µM (inactive)	> 100 µM (inactive)	> 100 µM (inactive)	> 100	> 100 µM (inactive)	> 100 µM (inactive)	> 100 µM (inactive)	> 100 µM (inactive)	> 100 µM (inactive)	> 100 µM (inactive)	> 100 µM (inactive)	> 100 µM (inactive)	> 100 µM (inactive)		> 100 µM (inactive)
CCOC(=O)C1=C(C)N2CCOC2(C)C(C(=O)OC)C1c1cccc(Cl)c1 (stereo unspecified)	> 100 µM (inactive)	> 100 µM (inactive)	> 100 µM (inactive)	> 100 µM (inactive)	> 100	> 100 µM (inactive)	> 100 µM (inactive)		> 100 µM (inactive)	> 100 µM (inactive)	> 100 µM (inactive)	> 100 µM (inactive)	> 100 µM (inactive)	> 100 µM (inactive)	> 100 µM (inactive)	> 100 µM (inactive)
COC1(OC)CC2OC1C1N=NN(C(=O)OC(C)(C)C)C21 (stereo unspecified)	> 100 µM (inactive)	21.1 µM (inactive)	> 100 µM (inactive)		43.7	> 100 µM (inactive)	> 100 µM (inactive)	35.2 µM (inactive)	> 100 µM (inactive)	> 100 µM (inactive)	> 100 µM (inactive)			> 100 µM (inactive)	> 100 µM (inactive)	> 100 µM (inactive)
CCCCCCC(C)CCCCCCCCCCC(=O)O (stereo unspecified)	> 100 µM (inactive)	> 100 µM (inactive)		93.5 µM (inactive)		> 100 µM (inactive)	64.7 µM (inactive)	> 100 µM (inactive)	> 100 µM (inactive)	> 100 µM (inactive)	> 100 µM (inactive)	> 100 µM (inactive)	> 100 µM (inactive)	> 100 µM (inactive)	> 100 µM (inactive)	> 100 µM (inactive)
CCCCC(/C=N/NC(=N)N)CC.Cc1cc(O)c(C(C)C)cc1S(=O)(=O)O		56.2 µM (inactive)	17.5 µM (inactive)	43.3 µM (inactive)	85.7		52.4 µM (inactive)	36.1 µM (inactive)	35 µM (inactive)	42.5 µM (inactive)	97.5 µM (inactive)	21.9 µM (inactive)	61.7 µM (inactive)	33.4 µM (inactive)		41.3 µM (inactive)
COc1ccc2c(c1OC)C(C=C(c1ccccc1)c1ccccc1)CN(C)C2 (stereo unspecified)	17 µM (inactive)	21.3 µM (inactive)	24.9 µM (inactive)	8.39 µM (inactive)	15	6.82 µM (inactive)	18.9 µM (inactive)	31.6 µM (inactive)	22.4 µM (inactive)	16.2 µM (inactive)	25.5 µM (inactive)		22 µM (inactive)	20 µM (inactive)	15.8 µM (inactive)	21.8 µM (inactive)
O=C1CC(c2c(-c3ccccc3)[nH]c3ccccc23)C(=O)N1c1ccccc1 (stereo unspecified)	> 100 µM (inactive)	63.7 µM (inactive)	> 100 µM (inactive)	41.9 µM (inactive)	61.8	> 100 µM (inactive)	44.4 µM (inactive)	61.5 µM (inactive)	78.7 µM (inactive)	13.5 µM (inactive)			> 100 µM (inactive)	88.9 µM (inactive)	56.8 µM (inactive)	> 100 µM (inactive)
CCOC(=O)/C(C#N)=C(O)/C(=C/c1ccccc1Cl)NC(=O)c1ccccc1	> 100 µM (inactive)	> 100 µM (inactive)	> 100 µM (inactive)	30.3 µM (inactive)	27.7	> 100 µM (inactive)	> 100 µM (inactive)	> 100 µM (inactive)	> 100 µM (inactive)	> 100 µM (inactive)	> 100 µM (inactive)		> 100 µM (inactive)	> 100 µM (inactive)	> 100 µM (inactive)	> 100 µM (inactive)
CCOC(=O)C1=C(C)N(NC(=O)Nc2ccccc2)C2(N)N(NC(=O)Nc3ccccc3)C(C)=C(C(=O)OCC)C12C(=O)OCC (stereo unspecified)	28.2 µM (inactive)		27.4 µM (inactive)	29.9 µM (inactive)	> 100	54.3 µM (inactive)	> 100 µM (inactive)		64 µM (inactive)	47.8 µM (inactive)	1.66 µM (inactive)	34 µM (inactive)	80.4 µM (inactive)	33 µM (inactive)	35.1 µM (inactive)	67.3 µM (inactive)
CCCCCCCCCCCCCCCCc1c(O)nc(NN)nc1C(=O)OC	> 50 µM (inactive)	> 50 µM (inactive)	> 50 µM (inactive)	> 50 µM (inactive)	> 50	> 50 µM (inactive)	> 50 µM (inactive)	> 50 µM (inactive)	> 50 µM (inactive)	> 50 µM (inactive)	> 50 µM (inactive)		> 50 µM (inactive)	> 50 µM (inactive)	> 50 µM (inactive)	> 50 µM (inactive)
Cc1ccc(SSCCCCS(=O)O)cc1	19.1 µM (inactive)	5.74 µM (inactive)	25.1 µM (inactive)	20.7 µM (inactive)	17.5	21.7 µM (inactive)	18.2 µM (inactive)	> 100 µM (inactive)	17.9 µM (inactive)	26.4 µM (inactive)	11.4 µM (inactive)		19.9 µM (inactive)	10.6 µM (inactive)	11.5 µM (inactive)	18.5 µM (inactive)
O=C(O)C[C@H]1CCCCC12CCOC2=O (stereo partly specified)		> 100 µM (inactive)	> 100 µM (inactive)	> 100 µM (inactive)		> 100 µM (inactive)	> 100 µM (inactive)	> 100 µM (inactive)	> 100 µM (inactive)	> 100 µM (inactive)	> 100 µM (inactive)	> 100 µM (inactive)	> 100 µM (inactive)	> 100 µM (inactive)	> 100 µM (inactive)	> 100 µM (inactive)
COc1ccc(S(=O)(=O)Nc2ccccc2C(=O)O)cc1	> 100 µM (inactive)	> 100 µM (inactive)	> 100 µM (inactive)		> 100	> 100 µM (inactive)	> 100 µM (inactive)	> 100 µM (inactive)	> 100 µM (inactive)	> 100 µM (inactive)	> 100 µM (inactive)		> 100 µM (inactive)	> 100 µM (inactive)	> 100 µM (inactive)	> 100 µM (inactive)
